Experiments:
conscious rats = assay: Radiotelemetric measurement of blood pressure and heart rate of conscious rats; assay type: in vivo, rat
Excerpt: Radiotelemetric Measurement of Blood Pressure and Heart Rate of Conscious Rats
A commercially available telemetry system from Data Sciences International DSI, USA, was employed for the measurements on conscious rats (Wistar strain Unilever/WU or Spontaneous Hypertensive Rat/SHR) described below. The system consists of 3 main components: (1) implantable transmitters (PhysioTel® telemetry transmitter), (2) receivers (PhysioTel® receiver), which are linked via a multiplexer (DSI Data Exchange Matrix) to a (3) data acquisition computer. The telemetry system makes it possible to continuously record blood pressure, heart rate and body motion of conscious animals in their usual habitat.
The studies are conducted on adult female rats with a body weight of >200 g. After transmitter implantation, the experimental animals are housed singly in type III Makrolon® cages. They have free access to standard feed and water. The day/night rhythm in the test laboratory is set by changing the illumination of the room.
The telemetry transmitters used (e.g. PA-C40 HD-S10, DSI) are surgically implanted under aseptic conditions in the experimental animals at least 14 days before the first experimental use.
For the implantation, the fasted animals are anesthetized with isoflurane (IsoFlo®, Abbott, initiation 5%, maintenance 2%) and shaved and disinfected over a large area of their abdomens. After the abdominal cavity has been opened along the linea alba, the liquid-filled measuring catheter of the system is inserted into the descending aorta in the cranial direction above the bifurcation and fixed with tissue glue (Vetbond™, 3M). The transmitter housing is fixed intraperitoneally to the abdominal wall muscle, and the wound is closed layer by layer. Post-operatively, an antibiotic (Ursocyclin® 10%, 60 mg/kg s.c., 0.06 ml/100 g body weight, Serumwerk Bernburg AG, Germany) for infection prophylaxis and an analgesic (Rimadyl®, 4 mg/kg s.c., Pfizer, Germany) are administered.
Unless stated otherwise, the substances to be studied are administered orally to a group of animals in each case (n=6). In accordance with an administration volume of 2 ml/kg of body weight, the test substances are dissolved in suitable solvent mixtures. A solvent-treated group of animals is used as control.
The telemetry measuring system is configured for 24 animals.
Each of the instrumented rats living in the system is assigned a separate receiving antenna (RPC-1 Receiver, DSI). The implanted senders can be activated externally via an installed magnetic switch and are switched to transmission during the pre-run of the experiment. The signals emitted can be detected online by a data acquisition system (Dataquest™ A.R.T. for Windows, DSI or Ponemah, DSI) and processed accordingly.
In the standard procedure, the following are measured for 10-second periods in each case: (1) systolic blood pressure (SBP), (2) diastolic blood pressure (DBP), (3) mean arterial pressure (MAP), (4) heart rate (HR) and (5) activity (ACT). These parameters are measured over 24 hours after administration.
The acquisition of measurements is repeated under computer control at 5-minute intervals. The source data obtained as absolute values are corrected in the diagram with the currently measured barometric pressure (Ambient Pressure Reference Monitor, APR-1, DSI).
After the end of the experiment, the acquired individual data are sorted using the analysis software (Dataquest™ A.R.T. 4.1 Analysis or Ponemah, DSI). The 2 hour time point before substance administration is assumed as the blank value.
The data are smoothed over a presettable period by determination of the means (30 minute mean).

[1] = patients with heart failure, phase III; cited from earlier work
[2] = healthy subjects and hypertensive patients; cited from earlier work
[3] = compound of the formula (6) alone, oral 0.3 mg/kg
[4] = compound of the formula (29) alone, oral 3 mg/kg
[5] = compound of the formula (29) alone, oral 10 mg/kg

COC(=O)Nc1c(N)nc(-c2nn(Cc3ccccc3F)c3ncc(F)cc23)nc1N [formula (6), methyl {4,6-diamino-2-[5-fluoro-1-(2-fluorobenzyl)-1H-pyrazolo[3,4-b]pyridine-3-yl]pyrimidin-5-yl}carbamate]
decrease in the mean arterial blood pressure (conscious rats; [3]): ca. −10% | heart rate (conscious rats; [3]): transient increase in heart rate | hemodynamic effects (blood pressure, heart rate) (conscious rats; compound of the formula (6) alone, oral dose 0.1 mg/kg): no hemodynamic effects

C[C@H]([C@H](C(=O)Nc1cc(C(CC(=O)O)C2CC2)ccc1Cl)c1ccc(Cl)cc1)C(F)(F)F (stereo partly drawn) [formula (29), 3-(4-chloro-3-{[(2S,3R)-2-(4-chlorophenyl)-4,4,4-trifluoro-3-methylbutanoyl]amino}phenyl)-3-cyclopropylpropanoic acid]
heart rate (conscious rats; compound of the formula (29) alone, oral 1 mg/kg): reflex tachycardia | decrease in the mean arterial blood pressure (conscious rats; [4]): ca. −10% | heart rate (conscious rats; [4]): associated reflex tachycardia | decrease in the mean arterial blood pressure (conscious rats; [5]): ~15% | heart rate (conscious rats; [5]): associated reflex tachycardia

trisodium [3-((1S,3R)-1-biphenyl-4-ylmethyl-3-ethoxycarbonyl-1-butylcarbamoyl)propionate-(S)-3′-methyl-2′-(pentanoyl{2″-(tetrazol-5-ylate)biphenyl-4′-ylmethyl}amino)butyrate] hemipentahydrate [LCZ696]
risk of death and hospitalization [1]: reduction in the risk of death and hospitalization | ANP and cGMP [2]: increase in ANP and cGMP | renin and angiotensin [2]: compensatory increase in renin and angiotensin

From patent US12427131B2, “Stimulators and/or activators of soluble guanylate cyclase (sGC) in combination with an inhibitor of neutral endopeptidase (NEP inhibitor) and/or an angiotensin AII antagonist and the use thereof” (BAYER PHARMA AKTIENGESELLSCHAFT, priority 2015, dated 2025)
